The source of these data is patent US10208074B2, “Pyrazole compounds and method for making and using the compounds” (Rigel Pharmaceuticals, Inc., priority 2015, dated 2019).

The test system of the assay is IL-23p19. As to the kind of experiment: LPS induced IL23p19 in THP-1 cells (with IFNγ primed) assay. Format: cell-based, Human. As to conditions: Homo sapiens, THP-1, 18 h. The source says: LPS Induced IL23p19 in THP-1 Cells (with IFNγ Primed) Assay
THP-1 Cells (ATCC, Cat#TIB-202), Dimethyl Sulfoxide (DMSO) (Sigma-Aldrich, Cat#D2650), RPMI 1640 (Cellgro, Cat#10-040-CM), Fetal Bovine Serum (Sigma, Cat#F4135), Albumin From Bovine Serum (BSA) (Sigma-Aldrich, Cat#A7906), LPS (Serotype K-235, Sigma, Product Number L 2143), IFNγ (Peprotech, Cat#300-02) Capture antibody: Human IL-23p19 ELISA (e-Bioscience, Cat. #14-7238-85), Detection antibody: Primary Mouse Biotinylated anti-human IL-12(p40/p70) (e-Bioscience, Cat. #13-7129-85), Secondary HRP-conjugated Streptavidin (R&D Systems, Cat#DY998), 1×PBST Washing Buffer (PBS-Tween tablet) (VWR International, Cat#80058-558), ELISA Blocking Buffer (PBS with 1% BSA), ELISA Dilution Buffer (PBS with 1% BSA), 384 Well Flat-Bottom, MaxiSorp Black Immuno Plates (Thermo Scientific, Cat#12-565-346), 384 Well Flat-Bottom, White Tissue Culture Plates (Thermo Scientific, Cat#12-565-343), Super Signal ELISA Pico Chemiluminescent Substrate (Thermo Scientific, Cat#37070), Cell Titer Glo reagent (Promega, Cat#G7573), Positive control, IKK2VI inhibitor (Calbiochem, Cat#401483), AquaMax 4000 plate washer (Molecular Devices), Luminometer, Wallac Victor2 1420 Multilabel Counter.
On day 1, 50K/well THP-1 cells were seeded and primed with IFNγ (50 ng/mL) in 384-well plates for about 18 hours in RPMI media with 10% FBS. On day 2, the compound was serially diluted in DMSO from 5 mM in 3-fold dilutions, and then diluted 1:125 in RPMI media with 10% FBS. 50 μL/well 2× compound was added to 50 μL/well THP-1 cells (with IFNγ primed) in duplicate in 384 well tissue culture plates. The cells were pre-incubated with compound for 1 hour at 37° C., 5% CO2 before addition of 10 μL/well 11×LPS to give a final concentration of 1 ug/mL LPS. Day 3, after stimulation for 18 hours at 37° C., 5% CO2, the assay plate was centrifuged and 70 μL/well supernatant was harvested. IL-23p19 protein in 70 μL/well of supernatant was measured by sandwich ELISA, and 25 μl/well Cell Titer Glo reagent was added to the remaining cells to measure compound toxicity.
Maxisorp immuno ELISA plates were pre-coated with 25 μL/well of anti-IL-23p19 capture antibody (2.5 ug/mL) in PBS overnight at room temperature. After washing with 1× PBST, the plates were blocked using 100 μL/well of 1% BSA in PBS for 2 hours at room temperature. The plates were washed three times with 1×PBST and 70 μL/well supernatant were added. The plates were incubated at room temperature for 2 hours with shaking and washed three times with 1×PBST. 25 μL/well of biotin labeled anti-IL-12(p40/p70) detection antibody (100 ng/mL) in PBS with 1% BSA was added and the plates were incubated at room temperature for 2 hours with shaking. After washing three times with 1×PBST, 25 μL/well of streptavidin-HRP (1:200) in PBS with 1% BSA was added and the plates were incubated at room temperature for 20 minutes with shaking. The plates were washed three times with 1× PBST and 25 μL/well of Super Signal ELISA Pico Chemiluminescent Substrate were added. The plates were read with a luminometer, and the chemiluminescence values were entered into Athena (Rigel) for curve fitting, EC50 calculation, and database storage.

Where [1] appears, read: THP-1 cells, IFNγ primed, LPS 1 ug/mL, 18 hours, 10 pt, read-out: IL23-p19 ELISA, THP1-IFNy, LPS, 10 pt EC50.

Each structure is given as a SMILES string. Structures can show the parent of a compound that is named as a salt. Where two headings read alike, the source gives them in different places.

One may read the EC50 as the concentration that produces a half-maximal response. Consider `CCCOCn1cc(NC(=O)c2ccc(-c3c[nH]c([N+](=O)[O-])c3)o2)c(-c2ccccn2)n1` [Compound I-24, 5-(5-nitro-1H-pyrrol-3-yl)-N-(1-(propoxymethyl)-3-(pyridin-2-yl)-1H-pyrazol-4-yl)furan-2-carboxamide], for which the EC50 under setting [1] is 4.22 µM.

With `O=C(Nc1cn(C(=O)N2CCOCC2)nc1-c1ccccn1)c1csc(-c2cn[nH]c2)n1` [II-129, N-(1-(morpholine-4-carbonyl)-3-(pyridin-2-yl)-1H-pyrazol-4-yl)-2-(1H-pyrazol-4-yl)thiazole-4-carboxamide], the EC50 under setting [1] stood at 0.377 µM.

As to `COc1ccc(Cn2cc(-c3nc(C(=O)Nc4c[nH]nc4-c4ccccn4)cs3)cn2)cc1` [II-53, 2-(1-(4-methoxybenzyl)-1H-pyrazol-4-yl)-N-(3-(pyridin-2-yl)-1H-pyrazol-4-yl)thiazole-4-carboxamide], the EC50 under setting [1] worked out at 24.1 µM. Take `COc1ccc(Cn2cc(-c3nc(C(=O)Nc4cn(CCF)nc4-c4ccccn4)cs3)cn2)cc1` [II-52, N-(1-(2-fluoroethyl)-3-(pyridin-2-yl)-1H-pyrazol-4-yl)-2-(1-(4-methoxybenzyl)-1H-pyrazol-4-yl)thiazole-4-carboxamide]: the half-maximal effective concentration (EC50) under setting [1] turned out to be 6.16 µM.

Consider `CC1(O)CC(n2cc(NC(=O)c3csc(-c4cn[nH]c4)n3)c(-c3ccccn3)n2)C1` (stereo not shown) [II-87, N-(1-(3-hydroxy-3-methylcyclobutyl)-3-(pyridin-2-yl)-1H-pyrazol-4-yl)-2-(1H-pyrazol-4-yl)thiazole-4-carboxamide], for which, under setting [1], the EC50 was 0.615 µM. As for `CCOP(=O)(Cn1cc(-c2nc(C(=O)Nc3cn(C)nc3-c3ccccn3)cs2)cn1)OCC` [II-7, diethyl ((4-(4-((1-methyl-3-(pyridin-2-yl)-1H-pyrazol-4-yl)carbamoyl)thiazol-2-yl)-1H-pyrazol-1-yl)methyl)phosphonate], the EC50 (read-out: IL23-p19 ELISA, THP1-IFNy, LPS, 10 pt EC50 (μM)) turned out to be 6.09 µM.

As for `COc1ccc(Cn2cc(-c3nc(C(=O)Nc4cn(CC(O)C(F)(F)F)nc4-c4ccccn4)cs3)cn2)cc1` (stereo not shown) [II-103, 2-(1-(4-methoxybenzyl)-1H-pyrazol-4-yl)-N-(3-(pyridin-2-yl)-1-(3,3,3-trifluoro-2-hydroxypropyl)-1H-pyrazol-4-yl)thiazole-4-carboxamide], the EC50 under setting [1] was 8.08 µM. As for `O=C(Nc1cn(C(F)F)nc1-c1ccccn1)c1csc(-c2cnn(C(F)F)c2)n1` [II-98, 2-(1-(difluoromethyl)-1H-pyrazol-4-yl)-N-(1-(difluoromethyl)-3-(pyridin-2-yl)-1H-pyrazol-4-yl)thiazole-4-carboxamide], the EC50 under setting [1] was 24.6 µM. Take `Cn1cc(NC(=O)c2coc(-c3cnn(CC4CC4)c3)n2)c(-c2ccccn2)n1` [III-1, 2-(1-(cyclopropylmethyl)-1H-pyrazol-4-yl)-N-(1-methyl-3-(pyridin-2-yl)-1H-pyrazol-4-yl)oxazole-4-carboxamide]: the EC50 under setting [1] was found to be 20.3 µM. With `COCCOCCn1cc(-c2ccc(C(=O)Nc3cn(CCOCCOC)nc3-c3ccccn3)o2)cn1` [Compound I-52, 5-(1-(2-(2-methoxyethoxy)ethyl)-1H-pyrazol-4-yl)-N-(1-(2-(2-methoxyethoxy)ethyl)-3-(pyridin-2-yl)-1H-pyrazol-4-yl)furan-2-carboxamide formate], the concentration giving a half-maximal response (EC50) under setting [1] was 1.38 µM. Still for that read-out and setting: the same measure for `CCO[C@H]1C[C@@H](n2cc(NC(=O)c3csc(-c4cn[nH]c4)n3)c(C(F)(F)F)n2)C1` [II-62, N-(1-((1s,3s)-3-ethoxycyclobutyl)-3-(trifluoromethyl)-1H-pyrazol-4-yl)-2-(1H-pyrazol-4-yl)thiazole-4-carboxamide]: 6.48 µM.

On to `CCO[C@H]1C[C@@H](n2cc3c(n2)CCCN3C(=O)c2csc(-c3cn[nH]c3)n2)C1` [II-67, (2-(1H-pyrazol-4-yl)thiazol-4-yl)(2-((1s,3s)-3-ethoxycyclobutyl)-2,5,6,7-tetrahydro-4H-pyrazolo[4,3-b]pyridin-4-yl)methanone], for which the EC50 under setting [1] amounted to 26.2 µM. In the case of `CCO[C@H]1C[C@@H](n2cc(NC(=O)c3csc(-c4c(C)n[nH]c4C)n3)c(-c3ccccn3)n2)C1` [II-93, 2-(3,5-dimethyl-1H-pyrazol-4-yl)-N-(1-((1,3-cis)-3-ethoxycyclobutyl)-3-(pyridin-2-yl)-1H-pyrazol-4-yl)thiazole-4-carboxamide], the 50% effective concentration (EC50) under setting [1] was found to be 0.109 µM. Still for that read-out and setting: the same measure for `COc1ccc(Cn2cc(-c3nc(C(=O)Nc4cn(C(=O)N(C)C)nc4-c4ccccn4)cs3)cn2)cc1` [II-105, N-(1-(dimethylcarbamoyl)-3-(pyridin-2-yl)-1H-pyrazol-4-yl)-2-(1-(4-methoxybenzyl)-1H-pyrazol-4-yl)thiazole-4-carboxamide]: 5.55 µM; for `Cn1cc(NC(=O)c2csc(-c3cn[nH]c3)n2)c(C#N)n1` [II-137, N-(3-cyano-1-methyl-1H-pyrazol-4-yl)-2-(1H-pyrazol-4-yl)thiazole-4-carboxamide]: 0.206 µM.

As for `O=C(Nc1cn(C2CCC2)nc1-c1ccccn1)c1ccc(-c2cnn(C3CCC3)c2)o1` [Compound I-122, 5-(1-cyclobutyl-1H-pyrazol-4-yl)-N-(1-cyclobutyl-3-(pyridin-2-yl)-1H-pyrazol-4-yl)furan-2-carboxamide 2,2,2-trifluoroacetate], the EC50 under setting [1] stood at 3.76 µM.
